In ChEMBL document CHEMBL3763150, “New antibacterial isocoumarin glycosides from a wetland soil derived fungal strain Metarhizium anisopliae” (2016):
In brackets after ≈: the same amount, converted by molar mass. Activity calls are given as the source filed them. No cut-off for these calls is given here.

Tests used:
Pseudomonas aeruginosa [1] = assay: Antibacterial activity against clinical isolates of Pseudomonas aeruginosa PAOA incubated for 20 hrs by two fold dilution method; type: functional
Pseudomonas aeruginosa [2] = assay: Antibacterial activity against clinical isolates of Pseudomonas aeruginosa PAOA assessed as inhibition of rhamnolipid secretion at 32 ug/ml; type: functional, organism-based
Pseudomonas aeruginosa [3] = assay: Antibiofilm activity against clinical isolates of Pseudomonas aeruginosa PAOA at 16 to 64 ug/ml incubated for 20 hrs by crystal violet staining based spectrophotometric analysis; type: functional, organism-based
Pseudomonas aeruginosa [4] = assay: Antibacterial activity against clinical isolates of Pseudomonas aeruginosa PAOA assessed as inhibition of rhamnolipid secretion at 64 ug/ml; type: functional, organism-based
Pseudomonas aeruginosa [5] = assay: Antibacterial activity against clinical isolates of Pseudomonas aeruginosa PAOA assessed as inhibition of pyocyanine secretion at 64 ug/ml; type: functional, organism-based

SMILES	MIC (Pseudomonas aeruginosa [1])	also measured
C/C=C/C=C/[C@H]1Cc2cc(O[C@@H]3O[C@H](CO)[C@@H](OC)[C@H](O)[C@H]3O)c(OC)c(O)c2C(=O)O1	> 128 µg/mL	–
C/C=C/CC[C@H]1Cc2c(O)c(O[C@@H]3O[C@H](CO)[C@@H](OC)[C@H](O)[C@H]3O)cc(O)c2C(=O)O1	> 128 µg/mL	–
C/C=C/CC[C@H]1Cc2cc(O)c(O[C@@H]3O[C@H](CO)[C@@H](OC)[C@H](O)[C@H]3O)c(O)c2C(=O)O1	> 128 µg/mL	–
C/C=C/CC[C@H]1Cc2cc(O[C@@H]3O[C@H](CO)[C@@H](OC)[C@H](O)[C@H]3O)c(OC)c(O)c2C(=O)O1	> 128 µg/mL	–
O=C1C=C(Br)/C(=C/Br)O1	128 µg/mL (≈ 504 µM)	inhibition (Pseudomonas aeruginosa [2]): Active; Activity (Pseudomonas aeruginosa [3]): Active
C/C=C/CC[C@H]1Cc2cc(O[C@@H]3O[C@H](COC(C)=O)[C@@H](OC)[C@H](O)[C@H]3O)c(OC)c(O)c2C(=O)O1	> 128 µg/mL	inhibition (Pseudomonas aeruginosa [2]): Active; Activity (Pseudomonas aeruginosa [3]): Active; inhibition (Pseudomonas aeruginosa [4]): Active; inhibition (Pseudomonas aeruginosa [5]): Active
C/C=C/CC[C@H]1Cc2cc(O[C@@H]3O[C@H](CO)[C@@H](OC)[C@H](O)[C@H]3O)cc(O)c2C(=O)O1	> 128 µg/mL	–
C/C=C/CCc1cc2cc(O[C@@H]3O[C@H](CO)[C@@H](OC)[C@H](O)[C@H]3O)c(OC)c(O)c2c(=O)o1	> 128 µg/mL	–
C/C=C/C=C/[C@H]1Cc2cc(O[C@@H]3O[C@H](CO)[C@@H](OC)[C@H](O)[C@H]3O)cc(O)c2C(=O)O1	> 128 µg/mL	–
